{"source": "patent US10106505B2", "about": "“Composition and methods for modulating a kinase cascade” (Athenex, Inc., priority 2012, dated 2018)", "key": {"aggressive brain tumors": {"tested_on": "aggressive brain tumors", "experiment": "Mice with aggressive brain tumors (mouse model of malignant glioma)", "type": "in vivo", "experimental": "(§1) Compound 1 is a synthetic, orally bioavailable, novel small molecule microtubule polymerization inhibitor with very high CNS penetration. The efficacy of compound 1 as a novel anti-cancer agent is tested directly using mouse model of malignant glioma. Compound 1 is an orally administered tubulin polymerization inhibitor that binds to a novel site on heterodimeric tubulin, and to a novel conformation of the dimer. Compound 1 can inhibit Src signaling in tumors. Compound 1 has been evaluated in various brain tumor cell lines. […] When administered orally to mice at a dose of 10 mg/kg, the ratio of drug levels in the brain compared to plasma levels was 0.76, indicating excellent blood brain barrier penetration.\n(§2) Compound 1 was evaluated in various human and mouse brain tumor cells derived from glioblastoma multiforme, astrocytoma and medulloblastoma. See, e.g., US2011/0281872. […] When administered to mice compound 1 penetrated the brain by 76%, thereby successfully addressing the first major challenge in brain cancer drug discovery. Drugs which are used to treat brain tumors often penetrate only 20% or less."}, "[1]": {"experiment": "Brain penetration after oral administration to mice", "type": "in vivo", "settings": "mouse, 10 mg/kg", "experimental": "as §1, §2"}, "GL261 glioma": {"tested_on": "GL261 glioma", "experiment": "Orthotropic GL261 glioma model in immune-competent, syngeneic C57BL/6 mice", "type": "in vivo", "experimental": "(§3) Compound 1 was also evaluated in the orthotropic GL261 glioma model in immune-competent, syngeneic C57BL/6 mice. Mice implanted intracerebrally with 1×1^05 GL261 cells treated with vehicle alone (saline) have a median survival time (MeST) of 21 days (range 18-28). Mice treated by oral compound 1 (30 mg/kg, b.i.d.) have a MeST of 30.5 days ranging 23-32 days. In contrast, when compound 1 is given orally at (30 mg/kg, s.i.d.) the MeST increases to over 120 days, with more than 60% of the treatment group still alive 12 months later (p<0.0001). […] Further experiments were performed using a SCID version of C57BL/6 mice (B6.CB17-Prkd^cscid/SzJ), a mouse model of B6 background, but is immune-compromised.\nWhen given as a single dose per day (s.i.d.) compound 1 led to complete tumor regression in up to 60% of treated mice without further progression. […] This magnitude of anti-tumor effect was not observed in SCID models leading to the possibility that compound 1 may be involved in an anti-tumor immune response.\nWhen given single dose per day (s.i.d.) compound 1 led to complete tumor regression in up to 60% of treated mice without further progression."}, "[2]": {"tested_on": "human colon cancer cells (HT29)", "experiment": "Src substrate phosphorylation in HT29 cells", "type": "cell-based", "settings": "in good correlation with growth inhibitory effects", "text": "(§4) Compounds of the invention may be Src signaling inhibitors that bind in the Src peptide substrate site. The activity of various compounds of the invention has been studied in c-Src (527F, constitutively active and transforming) transformed NIH3T3 cells and in human colon cancer cells (HT29)."}, "[3]": {"tested_on": "various brain tumor cell lines (glioblastoma multiforme, astrocytoma, medulloblastoma)", "experiment": "Proliferation of brain tumor cell lines", "type": "cell-based, human and mouse", "experimental": "as §1, §2"}, "survivin": {"tested_on": "survivin", "experiment": "Additional molecular studies on survivin"}, "[4]": {"tested_on": "GL261 intracerebral tumors", "experiment": "GL261 intracerebral tumors in immune-compromised SCID C57BL/6 mice", "type": "in vivo, SCID version of C57BL/6 mice (B6.CB17-Prkd^cscid/SzJ)", "experimental": "as §3"}, "[5]": {"tested_on": "c-Src (527F, constitutively active and transforming) transformed NIH3T3 cells", "experiment": "Src substrate phosphorylation in c-Src transformed NIH3T3 cells", "type": "cell-based", "settings": "c-Src (527F) transformed NIH3T3 cells; in good correlation with growth inhibitory effects", "text": "as §4"}, "[6]": {"settings": "mice with aggressive brain tumors"}, "[7]": {"settings": "oral 30 mg/kg, b.i.d., C57BL/6, intracerebral GL261"}, "[8]": {"settings": "immune-compromised SCID mice bearing GL261 intracerebral tumors"}}, "note": "Entries after “also recorded” stand apart in the source; their conditions may differ. Like-named read-outs stand apart in the source and are kept apart here.", "data": [{"smiles": "Cn1nnc2c(C(N)=O)ncn2c1=O", "note": "[Temodar, Temozolamide, reference compound]", "values": [{"measurement": "rate of tumor growth", "setting": "aggressive brain tumors; [6]", "value": "only slows the growth rate of the tumors"}, {"measurement": "complete tumor regression", "setting": "aggressive brain tumors; mice with aggressive brain tumors, comparison drug", "value": "does not cause complete tumor regression"}]}, {"smiles": "O=C(Cc1ccc(-c2ccc(N3CCOCC3)cc2)cn1)NCc1cccc(F)c1", "note": "[compound 1, N-(3-fluorobenzyl)-2-(5-(4-morpholinophenyl)pyridin-2-yl)acetamide]", "values": [{"measurement": "Kp", "setting": "[1]; brain (relative to plasma), mice, read-out: ratio of drug levels in the brain compared to plasma levels", "value": 0.76}, {"measurement": "Kp", "setting": "[1]; brain, administered to mice, read-out: brain penetration", "value": 0.76}, {"measurement": "second GL261 tumor implant challenge", "setting": "GL261 glioma; \"cured\" / long term survivor immune-competent C57BL/6 mice", "value": "rejected a second GL261 tumor implant challenge; also recorded: rejection of a second tumor"}, {"measurement": "median survival time (MeST)", "setting": "GL261 glioma; [7]", "value": 30.5, "unit": "days"}, {"measurement": "survival time range", "setting": "GL261 glioma; [7]", "value": "23 to 32", "unit": "days"}, {"measurement": "median survival time (MeST)", "setting": "GL261 glioma; oral 30 mg/kg, s.i.d., C57BL/6, intracerebral GL261", "value": "over 120 days"}, {"measurement": "treatment group still alive 12 months later", "setting": "GL261 glioma; oral 30 mg/kg, s.i.d., p<0.0001", "value": "more than 60%"}, {"measurement": "growth rate of intracerebral GL261 glioma", "setting": "GL261 glioma; relative to control groups, five independent studies", "value": "slows the growth rate"}, {"measurement": "treated mice with complete tumor regression without further progression", "setting": "GL261 glioma; single dose per day (s.i.d.)", "value": "up to 60%"}, {"measurement": "phosphorylation level of known Src protein substrates", "setting": "[2]", "value": "reduce the phosphorylation level of known Src protein substrates in a dose-dependent fashion"}, {"measurement": "drug treated mice with complete tumor regression and no reoccurrence within normal full life span", "setting": "aggressive brain tumors; [6]", "value": "up to 60%"}, {"measurement": "rate of tumor growth", "setting": "aggressive brain tumors; [6]", "value": "very significantly slows the rate of tumor growth"}, {"measurement": "brain edema", "setting": "aggressive brain tumors; versus placebo or Temodar treated mice", "value": "much less brain edema"}, {"measurement": "growth of brain tumor cells", "setting": "[3]; human and mouse brain tumor cells derived from glioblastoma multiforme, astrocytoma and medulloblastoma", "value": "potently inhibited the growth"}, {"measurement": "GI50", "setting": "[3]; various brain tumor cell lines, in all cases, read-out: GI50 (inhibition of proliferation)", "value": "< 55", "unit": "nM"}, {"measurement": "expression and localization of intracellular survivin", "setting": "survivin", "value": "increased expression and altered the localization of intracellular survivin"}, {"measurement": "tumor outcome after drug was discontinued (observed by MRI)", "setting": "[4]; SCID mice surviving greater than 45 days", "value": "all proceeded to develop lethal GL261 gliomas"}, {"measurement": "median survival time (MeST)", "setting": "[4]; [8]", "value": 40, "unit": "days"}, {"measurement": "survival time range", "setting": "[4]; [8]", "value": "29 to 75", "unit": "days"}, {"measurement": "phosphorylation level of known Src protein substrates", "setting": "[5]", "value": "reduce the phosphorylation level of known Src protein substrates in a dose-dependent fashion"}]}]}
